Measurements published in US20150087053A1, “COMPOSITIONS AND METHODS FOR INCREASING THE EXPRESSION AND SIGNALLING OF PROTEINS ON CELL SURFACES” (THE JOHNS HOPKINS UNIVERSITY, priority 2013, published 2015).
Entries after “also recorded” stand apart in the source; their conditions may differ.

Key:
mOREG = target: T1, mOREG (Mus musculus, UniProt Q920P2); assay: CRE luciferase reporter assay (Firefly:Renilla ratio), mOREG constructs; type: cell-based, murine; conditions: Rho-mOREG, Lucy-mOREG, no RTP1S, 100-300 μM eugenol
T1 construct: The mOR-EG full-length construct, containing N-terminal Flag/Rho tags; only in the L-EG and L-R-EG constructs) (N, cleaved yes); expressed in transfected cells; host or cells: HEK293T
T1 sequence (Q920P2 1-313): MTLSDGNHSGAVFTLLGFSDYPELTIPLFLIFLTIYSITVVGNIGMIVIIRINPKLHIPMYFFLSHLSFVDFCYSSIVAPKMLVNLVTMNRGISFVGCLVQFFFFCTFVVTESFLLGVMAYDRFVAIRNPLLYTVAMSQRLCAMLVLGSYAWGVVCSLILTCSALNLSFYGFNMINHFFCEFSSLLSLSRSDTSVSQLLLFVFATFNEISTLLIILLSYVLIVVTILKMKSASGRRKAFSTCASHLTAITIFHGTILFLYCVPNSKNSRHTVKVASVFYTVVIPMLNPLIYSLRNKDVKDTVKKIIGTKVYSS
Experimental: The luciferase assay was performed as previously described. Briefly, ORs were transfected into HEK293T cells along with constructs encoding for CREB-dependent luciferase (Firefly) and a constitutively expressed luciferase (Renilla). OR activation leads to a rise in cAMP which drives an increase in Firefly luciferase expression. Firefly activity is normalized to the activity of the Renilla luciferase to control for variation in cell number and transfection efficiency. Data were collected using a FLUOstar Omega automated platereader (BMG LabTech, Cary, N.C.). For some experiments, RTP1S was also transfected.
One-way ANOVA analysis followed by the Student-Newman Keuls test was performed on the luciferase reporter assay to compare the doses of isovaleric acid (0.1-5 mM) or eugenol (100-300 μM) to the non-treated control (0 μM). As each condition was performed in triplicate, the analyses were done with an n=3, and P values ≦0.05 were deemed significant. One-way ANOVE followed by Student-Newman Keuls was also used to analyze the surface expression data in FIG. 7. […]
As mOREG is one of the ORs that reach the cell surface under every condition tested, we expressed the OR with and without the Lucy and Rho tags and assessed its response to eugenol.

Olfr691 = target: T2, Olfr691 (Mus musculus, UniProt Q8VGW5); assay: CRE luciferase reporter assay (Firefly:Renilla ratio), Olfr691 constructs; conditions: 0.1-5 mM isovaleric acid
T2 sequence (Q8VGW5 1-322): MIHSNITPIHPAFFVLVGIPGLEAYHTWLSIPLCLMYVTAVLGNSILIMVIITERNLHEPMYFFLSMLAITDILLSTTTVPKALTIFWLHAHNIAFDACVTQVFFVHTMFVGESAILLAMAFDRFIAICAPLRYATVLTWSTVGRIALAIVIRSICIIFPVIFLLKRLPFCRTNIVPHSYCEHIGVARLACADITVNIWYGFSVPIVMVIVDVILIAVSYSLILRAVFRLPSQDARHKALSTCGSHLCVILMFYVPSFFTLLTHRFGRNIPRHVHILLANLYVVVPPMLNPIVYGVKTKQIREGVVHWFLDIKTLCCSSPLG

SMILES | OR activation (Firefly:Renilla ratio) (mOREG) | OR activation (Firefly:Renilla ratio) (Olfr691; Lucy-Rho-Olfr691 with and without RTP1S) | OR activation (Firefly:Renilla ratio) (Olfr691; Rho-Olfr691 co-expressed with RTP1S) | OR activation (Firefly:Renilla ratio) (Olfr691; Rho-Olfr691 without RTP1S)
C=CCc1ccc(O)c(OC)c1 [eugenol] | all concentrations of eugenol significantly activated; also recorded: dose-dependent activation |  |  | 
CC(C)CC(=O)O [isovaleric acid] |  | responded to isovaleric acid in a dose-dependent manner | dose-dependent increase in the Firefly:Renilla ratio | no concentrations of isovaleric acid activated R-691; also recorded: not significantly activated at any concentration
